Test results reported in ChEMBL document CHEMBL5137124, “Mutasynthesis Generates Antibacterial Benzothiophenic-Containing Nosiheptide Analogues” (2022).
In brackets after ≈: the same amount, converted by molar mass.

What was measured:
Assay type in all cases: functional
Staphylococcus aureus [1] = assay: Antibacterial activity against gram positive methicillin-resistant Staphylococcus aureus HCCB 20252 assessed as inhibition of bacterial growth incubated for 20 hrs by microtiter plate method
Enterococcus faecium [2] = assay: Antibacterial activity against gram positive vancomycin-sensitive Enterococcus faecium CICC 6049 assessed as inhibition of bacterial growth incubated for 20 hrs by microtiter plate method
Staphylococcus aureus [3] = assay: Antibacterial activity against gram positive methicillin-resistant Staphylococcus aureus HCCB 20251 assessed as inhibition of bacterial growth incubated for 20 hrs by microtiter plate method
Staphylococcus aureus [4] = assay: Antibacterial activity against gram positive methicillin-sensitive Staphylococcus aureus ATCC 6538 assessed as inhibition of bacterial growth incubated for 20 hrs by microtiter plate method
Enterococcus faecium [5] = assay: Antibacterial activity against gram positive vancomycin-sensitive Enterococcus faecium CICC 20419 assessed as inhibition of bacterial growth incubated for 20 hrs by microtiter plate method
Staphylococcus aureus [6] = assay: Antibacterial activity against gram positive methicillin-resistant Staphylococcus aureus ATCC 43300 assessed as inhibition of bacterial growth incubated for 20 hrs by microtiter plate method
Enterococcus faecium [7] = assay: Antibacterial activity against gram positive vancomycin-resistant Enterococcus faecium ATCC 51559 assessed as inhibition of bacterial growth incubated for 20 hrs by microtiter plate method
Staphylococcus aureus [8] = assay: Antibacterial activity against gram positive methicillin-sensitive Staphylococcus aureus ATCC 25923 assessed as inhibition of bacterial growth incubated for 20 hrs by microtiter plate method

| SMILES | MIC (Staphylococcus aureus [1]) [µg/mL] | MIC (Enterococcus faecium [2]) [µg/mL] | MIC (Staphylococcus aureus [3]) [µg/mL] | MIC (Staphylococcus aureus [4]) [µg/mL] | MIC (Enterococcus faecium [5]) [µg/mL] | MIC (Staphylococcus aureus [6]) [µg/mL] | MIC (Enterococcus faecium [7]) [µg/mL] | MIC (Staphylococcus aureus [8]) [µg/mL] |
| --- | --- | --- | --- | --- | --- | --- | --- | --- |
| C=C(NC(=O)c1csc(-c2nc3c(cc2O)-c2nc(cs2)C(=O)N[C@@H]([C@@H](C)O)C(=O)N/C(=C\C)c2nc(cs2)C(=O)N[C@H]2C[C@H](O)C(=O)OCc4cccc5[nH]c(c(C)c45)C(=O)SC[C@H](NC(=O)c4csc2n4)c2nc-3cs2)n1)C(N)=O | 0.008 (≈ 0.00654 µM) | 0.016 (≈ 0.0131 µM) | 0.008 (≈ 0.00654 µM) | 0.002 (≈ 0.00164 µM) | 0.032 (≈ 0.0262 µM) | 0.008 (≈ 0.00654 µM) | ≤ 0.008 | 0.008 (≈ 0.00654 µM) |
| C=C(NC(=O)C(=C)NC(=O)c1csc(-c2ccc3c(n2)-c2csc(n2)[C@@H]2CSC(=O)c4sc5cccc(c5c4C)COC(=O)CC[C@H](NC(=O)c4csc(n4)/C(=C/C)NC(=O)[C@H]([C@@H](C)O)NC(=O)c4csc-3n4)c3nc(cs3)C(=O)N2)n1)C(=O)O | 0.032 (≈ 0.025 µM) | 1.02 (≈ 0.802 µM) | 0.064 (≈ 0.0501 µM) | 0.016 (≈ 0.0125 µM) | 1.02 (≈ 0.802 µM) | 0.032 (≈ 0.025 µM) | 0.512 (≈ 0.401 µM) | 0.032 (≈ 0.025 µM) |
| C=C(NC(=O)c1csc(-c2nc3c(cc2O)-c2nc(cs2)C(=O)N[C@@H]([C@@H](C)O)C(=O)N/C(=C\C)c2nc(cs2)C(=O)N[C@H]2CCC(=O)OCc4cccc5sc(c(C)c45)C(=O)SC[C@H](NC(=O)c4csc2n4)c2nc-3cs2)n1)C(N)=O | 0.008 (≈ 0.00654 µM) | 0.064 (≈ 0.0523 µM) | 0.016 (≈ 0.0131 µM) | 0.004 (≈ 0.00327 µM) | 0.064 (≈ 0.0523 µM) | 0.008 (≈ 0.00654 µM) | 0.032 (≈ 0.0262 µM) | 0.032 (≈ 0.0262 µM) |
| C=C(NC(=O)C(=C)NC(=O)c1csc(-c2ccc3c(n2)-c2csc(n2)[C@@H]2CSC(=O)c4[nH]c5cccc(c5c4C)COC(=O)CC[C@H](NC(=O)c4csc(n4)/C(=C/C)NC(=O)[C@H]([C@@H](C)O)NC(=O)c4csc-3n4)c3nc(cs3)C(=O)N2)n1)C(=O)O | 0.064 (≈ 0.0508 µM) | > 1.02 | 0.064 (≈ 0.0508 µM) | 0.016 (≈ 0.0127 µM) | 1.02 (≈ 0.812 µM) | 0.032 (≈ 0.0254 µM) | 0.512 (≈ 0.406 µM) | 0.016 (≈ 0.0127 µM) |
| C=C(NC(=O)c1csc(-c2nc3c(cc2O)-c2nc(cs2)C(=O)N[C@@H]([C@@H](C)O)C(=O)N/C(=C\C)c2nc(cs2)C(=O)N[C@H]2C[C@H](O)C(=O)OCc4cccc5sc(c(C)c45)C(=O)SC[C@H](NC(=O)c4csc2n4)c2nc-3cs2)n1)C(N)=O | 0.008 (≈ 0.00645 µM) | 0.064 (≈ 0.0516 µM) | 0.016 (≈ 0.0129 µM) | 0.004 (≈ 0.00323 µM) | 0.064 (≈ 0.0516 µM) | 0.008 (≈ 0.00645 µM) | 0.016 (≈ 0.0129 µM) | 0.008 (≈ 0.00645 µM) |
| CN[C@H](CC(C)C)C(=O)N[C@H]1C(=O)N[C@@H](CC(N)=O)C(=O)N[C@H]2C(=O)N[C@H]3C(=O)N[C@H](C(=O)N[C@H](C(=O)O)c4cc(O)cc(O)c4-c4cc3ccc4O)[C@H](O)c3ccc(c(Cl)c3)Oc3cc2cc(c3O[C@@H]2O[C@H](CO)[C@@H](O)[C@H](O)[C@H]2O[C@H]2C[C@](C)(N)[C@H](O)[C@H](C)O2)Oc2ccc(cc2Cl)[C@H]1O [VANCOMYCIN] | – | – | – | – | – | – | > 128 | – |
